Measured values: the supplement of paper PMC11061612

Columns and labels:
Test in all cases: Bliss excess, mean over the matrix (fraction); higher = more synergy
[1] = system: RPMI-8866 (Chronic Myelogenous Leukemia)
Method in brief: (§1)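 Cell lines in DMEM/F12 or RPMI with 10% FBS were plated in 1536-well plates, held 24 hours at 37°C, 5% CO2, then given two-drug dose matrices for 72 hours (DMSO typically 0.2%). Viability was read by CellTiter-Glo 2.0 luminescence and scaled as inhibition from 0 (vehicle wells) to 1 (blank wells). Combination Emax is the second-highest inhibition in the matrix; Bliss excess is observed combination effect minus expected EA + EB − EA·EB, EA and EB being single-agent effects.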

[2] = system: OCI-AML5 (Acute Myeloid Leukemia)
Method in brief: as §1

[3] = system: LAMA-84 (Chronic Myelogenous Leukemia)
Method in brief: as §1

[4] = system: CML-T1 (Chronic Myelogenous Leukemia)
Method in brief: as §1

[5] = system: NKM-1 (Acute Myeloid Leukemia)
Method in brief: as §1

[6] = system: SW684 (Other Solid Carcinomas)
Method in brief: as §1

[7] = system: NCI-H1155 (Non-Small Cell Lung Carcinoma)
Method in brief: as §1

786-0 (Kidney Carcinoma) = system: 786-0 (Kidney Carcinoma)
Method in brief: as §1

HuO-3N1 (Osteosarcoma) = system: HuO-3N1 (Osteosarcoma)
Method in brief: as §1

[8] = system: SNU-175 (Colorectal Carcinoma)
Method in brief: as §1

[9] = system: FLO-1 (Esophageal Adenocarcinoma)
Method in brief: as §1

[10] = system: HSC-3 (Oral Cavity Carcinoma)
Method in brief: as §1

[11] = system: AsPC-1 (Pancreatic Carcinoma)
Method in brief: as §1

[12] = system: NCI-H1623 (Lung Adenocarcinoma)
Method in brief: as §1

ES-2 (Ovarian Carcinoma) = system: ES-2 (Ovarian Carcinoma)
Method in brief: as §1

[13] = system: Calu-6 (Non-Small Cell Lung Carcinoma)
Method in brief: as §1

[14] = system: EB-3 (Burkitt's Lymphoma)
Method in brief: as §1

[15] = system: JHH-1 (Hepatocellular Carcinoma)
Method in brief: as §1

[16] = system: PANC-02-03 (Pancreatic Carcinoma)
Method in brief: as §1

[17] = system: OV-90 (Ovarian Carcinoma)
Method in brief: as §1

Compound	Bliss excess [1]	Bliss excess [2]	Bliss excess [3]	Bliss excess [4]	Bliss excess [5]	Bliss excess [6]	Bliss excess [7]	Bliss excess (786-0 (Kidney Carcinoma))	Bliss excess (HuO-3N1 (Osteosarcoma))	Bliss excess [8]	Bliss excess [9]	Bliss excess [10]	Bliss excess [11]	Bliss excess [12]	Bliss excess (ES-2 (Ovarian Carcinoma))	Bliss excess [13]	Bliss excess [14]	Bliss excess [15]	Bliss excess [16]	Bliss excess [17]
NC1(C(=O)N[C@@H](CCO)c2ccc(Cl)cc2)CCN(c2ncnc3[nH]ccc23)CC1 [Capivasertib] + CCN(CCO)CCCOc1ccc2c(Nc3cc(CC(=O)Nc4cccc(F)c4)[nH]n3)ncnc2c1 [AZD2811] (first compound max 10 µM, 7x7, partner max 1 µM)	0.0469	-0.0465	0.0341	-0.0597	-0.0299	-0.0532	-0.0152	-0.0352	-0.0379	0.0058	-0.0049	-0.0374	-0.0655	0.0004	-0.0018	-0.0009	0.0152	-0.0517	-0.0261	-0.0272
CC1(C)CCC(CN2CCN(c3ccc(C(=O)NS(=O)(=O)c4ccc(NCC5CCOCC5)c([N+](=O)[O-])c4)c(Oc4cnc5[nH]ccc5c4)c3)CC2)=C(c2ccc(Cl)cc2)C1 [Venetoclax] + Cn1cnc2c(F)c(Nc3ccc(Br)cc3Cl)c(C(=O)NOCCO)cc21 [Selumetinib] (first compound max 1 µM, 7x7, partner max 3 µM)	-0.057	0.111	-0.0157	0.0069	0.0456	-0.0631	-0.0317	-0.0347	-0.011	-0.0157	-0.0485	-0.0043	-0.0748	-0.0046	-0.0367	-0.0665	-0.0241	-0.0588	-0.0386	-0.0345
C=CCn1c(=O)c2cnc(Nc3ccc(N4CCN(C)CC4)cc3)nc2n1-c1cccc(C(C)(C)O)n1 [AZD1775] + O=C(c1cc(Cc2n[nH]c(=O)c3ccccc23)ccc1F)N1CCN(C(=O)C2CC2)CC1 [Olaparib] (first compound max 1 µM, partner max 10 µM)	-0.0528	-0.0096	-0.0086	0.0213	-0.0375	-0.0689	0.0355	-0.0097	-0.0835	-0.0028	-0.0673	0.0013	0.0039	-0.0233	-0.0517	-0.0421	-0.0426	-0.0244	-0.0513	-0.0424
CC1(C)CCC(CN2CCN(c3ccc(C(=O)NS(=O)(=O)c4ccc(NCC5CCOCC5)c([N+](=O)[O-])c4)c(Oc4cnc5[nH]ccc5c4)c3)CC2)=C(c2ccc(Cl)cc2)C1 [Venetoclax] + Cc1cc2ncnn2cc1Nc1ncc2c(n1)n(C1CCOCC1)c(=O)n2C [AZD7648] (first compound max 1 µM, 7x7, partner max 10 µM)	-0.026	-0.0238	-0.0041	-0.0195	0.0323	-0.0627	-0.041	-0.0487	0.044	-0.0327	-0.114	0.0185	-0.0803	-0.0006	-0.0087	0.0067	-0.0225	-0.0374	-0.0646	-0.0639
Cc1c2c(nn1C)CSCc1cc(n(C)n1)CSc1cc(c3ccccc3c1)OCCCc1c(C(=O)O)n(C)c3c-2c(Cl)ccc13 [AZD5991] + C1CN(CCC1(C(=O)N[C@@H](CCO)C2=CC=C(C=C2)Cl)N)C3=NC=NC4=C3C=CN4 [Capivasertib] (first compound max 1 µM, 7x7, partner max 3 µM)	-0.0525	-0.0204	0.0007	-0.0081	-0.0335	-0.0298	0.0369	-0.0189	0.0122	0.0213	-0.0072	-0.0539	-0.0881	0.0471	-0.0021	0.0106	-0.0013	0.0258	-0.037	0.0139
Cc1c2c(nn1C)CSCc1cc(n(C)n1)CSc1cc(c3ccccc3c1)OCCCc1c(C(=O)O)n(C)c3c-2c(Cl)ccc13 [AZD5991] + CN(C)CCCOc1ccc(-c2ccc3ncc4c(c3c2)n(C2CCOCC2)c(=O)n4C)cn1 [AZD0156] (first compound max 1 µM, 7x7, partner max 1 µM)	-0.026	0.0075	-0.0051	0.0208	-0.152	-0.0222	0.0521	-0.0109	-0.0067	-0.0515	-0.0135	0.0527	-0.0137	-0.015	0.0018	0.0052	-0.0005	0.0048	-0.0241	-0.0068
CC1(C)CCC(CN2CCN(c3ccc(C(=O)NS(=O)(=O)c4ccc(NCC5CCOCC5)c([N+](=O)[O-])c4)c(Oc4cnc5[nH]ccc5c4)c3)CC2)=C(c2ccc(Cl)cc2)C1 [Venetoclax] + CN(C)CCCOc1ccc(-c2ccc3ncc4c(c3c2)n(C2CCOCC2)c(=O)n4C)cn1 [AZD0156] (first compound max 1 µM, 7x7, partner max 1 µM)	-0.0408	-0.0618	0.0018	0.0232	-0.0963	-0.0333	-0.0214	-0.0327	-0.0235	-0.0511	-0.113	0.012	-0.1	-0.0133	0.0069	0.0071	0.0498	-0.042	-0.0541	-0.041
COc1cc2ncnc(Nc3ccc(F)c(Cl)c3)c2cc1OCCCN1CCOCC1 [Gefitinib] + CC(C)n1c(=O)n(C)c2cnc3cc(F)c(-c4ccc(OCCCN5CCCCC5)nc4)cc3c21 [AZD1390] (first compound max 10 µM, 7x7, partner max 0.3 µM)	-0.0857	-0.051	-0.0328	-0.0252	-0.0581	-0.0557	-0.056	-0.0652	-0.0756	-0.0457	-0.0696	-0.0649	-0.0975	-0.0268	-0.0989	-0.0556	-0.0192	-0.0772	-0.0431	-0.0468
NC1(C(=O)N[C@@H](CCO)c2ccc(Cl)cc2)CCN(c2ncnc3[nH]ccc23)CC1 [Capivasertib] + CC(C)n1c(=O)n(C)c2cnc3cc(F)c(-c4ccc(OCCCN5CCCCC5)nc4)cc3c21 [AZD1390] (first compound max 10 µM, 7x7, partner max 0.3 µM)	0.0503	-0.0369	-0.0119	0.003	-0.111	-0.0057	-0.031	-0.0997	-0.101	-0.0346	-0.0398	-0.0746	-0.0512	-0.024	-0.0648	-0.0391	0.0022	-0.0495	-0.013	-0.0325
COc1nnc2ccc(N3CCC(c4ccc(OCCN5CCN(C)C(=O)[C@H]5C)cc4)CC3)nn12 [AZD5153] + Cn1cnc2c(F)c(Nc3ccc(Br)cc3Cl)c(C(=O)NOCCO)cc21 [Selumetinib] (first compound max 1 µM, 7x7, partner max 10 µM)	-0.0233	0.0945	0.0757	-0.14	0.0071	-0.0187	-0.035	0.0143	-0.0026	-0.0007	0.0012	-0.0211	-0.0238	0.0294	0.0345	0.0533	-0.0591	0.0139	0.0742	-0.0203
COc1cccc(OCCCN)c1-c1cc(Nc2cnc(C#N)cn2)n[nH]1 [Prexasertib] + CCc1c2c(nc3ccc(O)cc13)-c1cc3c(c(=O)n1C2)COC(=O)[C@]3(O)CC [SN-38] (first compound max 1 µM, 7x7, partner max 0.3 µM)	0.0104	-0.0197	-0.0066	0.0077	-0.0554	0.0036	-0.0161	-0.0368	-0.0105	-0.0298	0.0153	-0.0455	-0.0333	-0.0364	-0.0222	-0.0116	-0.0404	-0.11	0.0098	-0.0591
Cn1cnc2c(F)c(Nc3ccc(Br)cc3Cl)c(C(=O)NOCCO)cc21 [Selumetinib] + C=CCn1c(=O)c2cnc(Nc3ccc(N4CCN(C)CC4)cc3)nc2n1-c1cccc(C(C)(C)O)n1 [AZD1775] (first compound max 10 µM, partner max 1 µM)	-0.0049	0.036	-0.0385	-0.0607	-0.0478	-0.106	-0.0474	-0.0543	-0.0972	-0.0174	-0.0108	-0.0355	-0.046	-0.0223	0.0334	-0.0133	-0.0729	0.0171	-0.0033	-0.0274
CN(C)CCCOc1ccc(-c2ccc3ncc4c(c3c2)n(C2CCOCC2)c(=O)n4C)cn1 [AZD0156] + CCN(CCO)CCCOc1ccc2c(Nc3cc(CC(=O)Nc4cccc(F)c4)[nH]n3)ncnc2c1 [AZD2811] (first compound max 1 µM, 7x7, partner max 1 µM)	0.0518	-0.0185	-0.021	0.0352	-0.031	-0.0583	-0.0175	-0.0107	-0.0225	-0.0101	-0.0376	-0.0087	-0.0461	-0.0321	-0.0163	-0.0112	0.0304	-0.0159	-0.0371	-0.0823
Cn1cnc2c(F)c(Nc3ccc(Br)cc3Cl)c(C(=O)NOCCO)cc21 [Selumetinib] + CCN(CCO)CCCOc1ccc2c(Nc3cc(CC(=O)Nc4cccc(F)c4)[nH]n3)ncnc2c1 [AZD2811] (first compound max 10 µM, 7x7, partner max 1 µM)	0.0543	-0.0225	0.0237	0.0685	-0.0376	-0.036	0.0907	-0.0344	-0.106	-0.0253	-0.0448	-0.0877	0.0032	0.0134	-0.0322	-0.0026	-0.0415	-0.0327	-0.0144	-0.0252
